Results taken from patent US7125891B2, “Tripeptidyl peptidase inhibitors” (Janssen Pharmaceutica N.V., priority 2000, dated 2006).
Where a name gives a salt, the structure may show the parent alone.

Row | melting point [°C] | SMILES
1 | 105 to 106 | CCc1cn(C)c(C2Cc3ccccc3N2C(C)=O)n1 (stereo not shown)
2 | 77 to 80 | CCCc1cnc(C2Cc3ccccc3N2C(=O)C(C)N(C)C(=O)OC(C)C)[nH]1 (stereo not shown)
3 | 208 to 209 | CCc1cnc(C2Cc3ccccc3N2C(=O)Nc2ccccc2[N+](=O)[O-])[nH]1 (stereo not shown)
4 | 174 to 175 | CCCc1cnc(C2Cc3ccccc3N2C(C)=O)[nH]1 (stereo not shown)
5 | 93 to 94 | CCCc1nc(C2Cc3ccccc3N2C(C)=O)no1 (stereo not shown)
6 | 132 to 140 | CCCc1cnc(C2Cc3ccccc3N2C(=O)C(N)CC)[nH]1 (stereo not drawn) (as salt: HCl) (hydrate or solvate) [Compound 15, [2S-[1(R*),2R*]]-α-ethyl-2,3-dihydro-β-oxo-2-(4-propyl-1H-imidazol-2-yl)-1H-indole-1-ethanamine dihydrochloride dihydrate]
7 | 106 to 108 | CCc1cnc(C2Cc3ccccc3N2C(=O)Nc2ccccc2N)[nH]1 (stereo not shown) (as salt: trifluoroacetate)
8 | 98 to 103 | CCc1cnc(C2Cc3ccccc3N2C(=O)c2ccccc2C(=O)O)[nH]1 (stereo not shown) (as salt: trifluoroacetate)
9 | 208 to 211 | NCC(=O)N1c2ccccc2CC1c1nc2cc(C(=O)O)ccc2[nH]1 (stereo not shown) (as salt: trifluoroacetate) (hydrate or solvate) [Compound 62, 2-[1-(aminoacetyl)-2,3-dihydro-1H-indol-2-yl]-1H-benzimidazole-5-carboxylic acid monohydrate trifluoroacetate (1:2)]
10 | 160 to 162 | CCCc1nc(C2Cc3ccccc3N2C(=O)CN)no1 (stereo not drawn) (as salt: trifluoroacetate) [Compound 90, 2,3-dihydro-β-oxo-2-(5-propyl-1,2,4-oxadiazol-3-yl)-1H-indole-1-ethanamine trifluoroacetate (1:1)]
